In patent US12083084B2, “Method for enhancing energy production and metabolism in cells” (REPLICON HEALTH OY, priority 2013, dated 2024):

Columns and labels:
[1] = test system: ethanol-dosed gastric cells; conditions: in vitro; cited from earlier work
[2] = Blood pressure (hypertension) in study subjects; assay type: in vivo, human
Description: FIG. 12 depicts that hypertension was measured in two study subjects out of eight (subject 4 and 5). Subject 5 was the only person with clearly elevated blood pressure. (For other study subjects 1-3 and 6-8 blood pressures were at normal level.) Subject 5 blood pressure was first observed without any treatment for 6 days (from 20 of Jan. to 26 of Jan. 2013). After that subject 5 received twice a day 4 mg/kg of DGA mixed to water for 10 days. […] Subject 4 received 1×4 mg/k/day of DGA for 3 weeks.
FIG. 12a: Hypertension, subject 5 (averages of three measurements. DGA dosing started on 26th of January and ended on 3rd of February. Dose 2×4 mg/kg/day).
FIG. 12b: Hypertension, subject 4 (averages of three measurements. Subject 4 received 1×4 mg/kg/day of DGA for 3 weeks).

[3] = test system: Mitochondria of Primary Rat Cortical Neurons; experiment: Mitochondrial Ca2+-uptake in rat cortical neurons (fluorescent imaging); assay type: cell-based; conditions: 50 ug/ml for 24 h, N = 3
Description: Fluorescent imaging. Imaging experiments were performed at 7 DIV. The cells were loaded with fluorescent dyes (fura4F, fura-ff and rhodamine 123) in cell culture medium at 37° C. 1 h, 5 μM for each dye. Then cells were washed with Mg^2+-free Locke's buffer containing 1.3 mM Ca^2+, moved to the microscope stage, and imaging was performed at room temperature. […] For delayed calcium deregulation experiments a lower affinity Ca^2+-indicator FuraFF (Kd 5.5 μM) was used to avoid a saturation of the signal.
In this study a zero control and one DGAcs group of primary rat cortical neurons was cultivated normally without DGAcs until 6 DIV, and then the DGAcs group was treated with 50 μg/ml DGAcs for 24 hours. After that culture medium was replaced by Mg^2+-free Locke's buffer containing 50 μg/ml DGAcs and imaging experiments were performed at room temperature at 7 DIV.
50 μM NMDA in the presence of 10 μM glycin in Mg^2+-free buffer was used to stimulate the cells.
For complete mitochondrial depolarization and release of Ca^2+ accumulated in mitochondria 2 μM protonophore FCCP was used in the presence of NMDA-receptors inhibitor MK801 (2 μM).

[4] = rats, given with ethanol; cited from earlier work
[5] = Glucose tolerance test, plasma glucose and insulin; assay type: in vivo, human; conditions: 4.5 day experiment
Description: In the 4.5 day experiment also standard, fasting glucose tolerance test was conducted for S1 and S9 starting after 2.5 hours of last administration of DGAcs. Blood glucose levels were measured at 0 h, 60 min and 120 minutes.

| SMILES | viability of ethanol-dosed gastric cells [1] | blood pressure ([2]; subject 4, 1×4 mg/kg/day for 3 weeks) | diastolic blood pressure after treatment ([2]; subject 5, clearly elevated blood pressure (102 or 104 before), twice a day for 10 days) | systolic blood pressure after treatment ([2]; subject 5, clearly elevated blood pressure (roughly 180 before), twice a day for 10 days) | Average Ca release, FCCP ([3]; 2 μM FCCP + MK801 (complete mitochondrial depolarization)) | Average Ca release, peak NMDA ([3]; 50 μM NMDA) | Average Ca release, baseline Ca [3] | metabolism of alcohol [4] | drop of blood glucose at 120 min ([5]; S1 (starting level 5.0 mmol/L), 75 g glucose) | blood glucose lower at 120 min compared to the control ([5]; S9 (fasting blood glucose 6.0 mmol/L), 75 g glucose) [mmol/L] | blood insulin level at 60 minutes ([5]; S9, 75 g glucose) |
| --- | --- | --- | --- | --- | --- | --- | --- | --- | --- | --- | --- |
| O=C(O)[C@H](O)CO [DGA, D-glyceric acid] | increase viability | declined also somewhat | ~90 | ~160 | – | – | – | – | – | – | – |
| O.O.O=C([O-])[C@H](O)CO.O=C([O-])[C@H](O)CO.[Ca+2] [DGAcs, D-glyceric acid, calcium salt dehydrate] | – | – | – | – | 0.475 *) | 0.219 | 0.070 | expedited the metabolism of alcohol | marginal | ~0.6 | higher insulin level |
